Measured values as given in patent publication US20130211079A1, “SUBSTITUTED HETEROCYCLES AS THERAPEUTIC AGENTS FOR TREATING CANCER” (priority 2010, published 2013).

Assays:
p53-hMDM2 complex = target: T1, p53-hMDM2 complex (Homo sapiens, UniProt Q00987); test: 1D AIDA-NMR antagonist-induced dissociation assay; type: binding; conditions: p53 (res. 1-321) + Hdm2 (res. 1-125); FIG. 3
T1 construct: complex of p53 (res. 1-321)+Hdm2 (res. 1-125)

Aqueous solubility = type: physicochemical; conditions: PB11 compared with PB2
Source text: The present inventor rationalized, therefore, that derivatization of an inventive compound to a more hydrophilic drugable molecule, for instance via amidation of a carboxylic acid group or the amidation of an ester group could potentially improve water solubility, binding affinity and bioavailability. See below for synthetic methodology.

Hdm2 = Hdm2 (Homo sapiens, UniProt Q00987); conditions: KD; method for each compound in column 'Method of KD calculation' (bin. titr., AIDA, FP, SPR)
Sequence of Hdm2 (Q00987 1-125): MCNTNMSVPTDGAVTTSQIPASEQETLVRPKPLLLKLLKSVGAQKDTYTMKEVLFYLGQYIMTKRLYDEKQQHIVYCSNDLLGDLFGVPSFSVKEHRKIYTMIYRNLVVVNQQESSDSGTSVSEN
Procedure: The affinities of imidazoline compounds of the present invention towards MDM2 or MDM4 proteins was measured by 2D H^1—N^15 HSQC NMR spectroscopy.
Water suppression was carried out using the WATERGATE sequence. NMR spectra were acquired at 300 K on a Bruker DRX 600 MHz spectrometer equipped with a cryoprobe and the data was processed using the Bruker program Xwin-NMR V. 3.5.
NMR ligand binding experiments were carried out in an analogous way to those previously described. […] For instance, 500 μL of the protein sample, at a concentration of about 0.1 mM, in 10% D2O and a 20 mM stock solution of nutin-3 (purchased from Cayman Chemical, MI) in DMSO-d6 were used in all experiments. […]
For example, 500 μL of the protein sample, at a concentration of about 0.1 mM, in 10% D2O and a 20 mM stock solution of nutin-3 (purchased from Cayman Chemical, MI) in DMSO-d6 were used in all of the experiments. […] The ^1H—^15N—HSQC spectra were recorded using fast HSQC pulse sequence as described by Mori et al., J. Magn. […]
The fluorescence intensities parallel (Intparallel) and perpendicular (Intperpedicular) to the plane of excitation were measured in black 384-well NBS assay plates (Corning) at room temperature (˜20° C.). […]
All fluorescence polarization values were expressed in millipolarization units (mP). […] Plates were read at 30 min after mixing all assay components. […]

T1 sequence (Q00987 1-125, one chain of several): as the sequence (Q00987 1-125) above

Row | disruption of p53-hMDM2 complex (reappearance of Trp23 peak of p53) (p53-hMDM2 complex) | water solubility (Aqueous solubility) | Binding to Hdm2 (Hdm2) | SMILES
1 | dissociation of the p53-hMDM2 complex | improved |  | CC(C)C[C@@]1(C(=O)NCCc2ccncc2)N=CN(CC2CC2)C1c1ccc(Cl)cc1 (mixture of isomers) [PB11, cis-5-(4-chlorophenyl)-1-(cyclopropylmethyl)-4-isobutyl-N-(2-(pyridin-4-yl)ethyl)-4,5-dihydro-1H-imidazole-4-carboxamide]
2 |  |  | precipitation | Oc1ccc2ccc(Br)cc2c1C(NCC1CC1)c1ccc(Cl)cc1 (stereo not shown) [PB13, 7-Bromo-1-[(4-chlorophenyl)(cyclopropylmethylamino)methyl]naphthalen-2-ol]
3 |  |  | precipitation | O=C1C(c2ccc(Cl)cc2)C(c2cc3ccc(Cl)cc3[nH]2)N1c1ccc(Cl)cc1 (stereo not shown) [PB15, 4-(6-Chloro-1H-indol-2-yl)-1,3-bis-(4-chlorophenyl)azetidin-2-one]
